From patent publication US6339077B1, “Substituted 4-benzylaminoquinolines and their hetero analogs, process for their preparation, pharmaceuticals containing these compounds and use thereof” (Aventis Pharma Deutschland GmbH, priority 1999, dated 2002) come the findings set out here.

In the assay the target is T1, human NHE-3 protein (expressed in the LAP1 cell line) (Homo sapiens, UniProt P48764).
T1 construct: expressed in transfected cells; host or cells: LAP1 cell line
T1 sequence (P48764 26-834): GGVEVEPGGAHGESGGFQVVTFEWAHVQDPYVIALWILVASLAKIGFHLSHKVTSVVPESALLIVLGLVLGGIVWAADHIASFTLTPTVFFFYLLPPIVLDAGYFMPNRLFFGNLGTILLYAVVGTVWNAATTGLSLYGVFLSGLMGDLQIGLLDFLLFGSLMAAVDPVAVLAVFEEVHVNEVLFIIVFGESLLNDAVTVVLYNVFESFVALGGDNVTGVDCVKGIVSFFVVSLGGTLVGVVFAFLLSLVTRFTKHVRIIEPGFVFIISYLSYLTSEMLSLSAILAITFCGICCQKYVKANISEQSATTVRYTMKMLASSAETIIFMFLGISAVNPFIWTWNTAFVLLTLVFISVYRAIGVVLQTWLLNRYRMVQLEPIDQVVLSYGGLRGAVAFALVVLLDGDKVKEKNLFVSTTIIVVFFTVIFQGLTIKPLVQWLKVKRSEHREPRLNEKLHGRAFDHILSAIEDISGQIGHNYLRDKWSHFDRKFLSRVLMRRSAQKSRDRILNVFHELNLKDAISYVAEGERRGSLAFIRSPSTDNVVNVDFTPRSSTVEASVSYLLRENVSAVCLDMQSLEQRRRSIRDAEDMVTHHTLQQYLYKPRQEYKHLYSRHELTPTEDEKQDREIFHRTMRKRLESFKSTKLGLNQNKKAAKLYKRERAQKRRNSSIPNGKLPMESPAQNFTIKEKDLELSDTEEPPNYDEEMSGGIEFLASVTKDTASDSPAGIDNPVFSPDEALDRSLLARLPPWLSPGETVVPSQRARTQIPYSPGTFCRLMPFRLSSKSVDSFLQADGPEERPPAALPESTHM
The experiment in a line: Inhibition of sodium/proton exchanger subtype 3: recovery of intracellular pH after acidification (BCECF fluorescence). It is filed as cell-based. The settings on record: pHi recovery as percentage of the maximum recovery; for remaining activity of hNHE3: at 30 μM; for remaining activity at 30 µM: read-out: remaining activity of hNHE3. Here is the method:
Biological testing of the novel compounds was accomplished by measuring inhibition of the sodium/proton exchanger subtype 3.
The remaining activity of the human NHE-3 protein (expressed in the LAP1 cell line) was determined by measuring the recovery in the intracellular pH (pHi) after an acidification, which starts when the NHE is capable of functioning, even under bicarbonate-free conditions. For this purpose, the pHi was determined using the pH-sensitive fluorescent dye BCECF (Calbiochem, the precursor BCECF-AM is employed). The cells were initially loaded with BCECF. […] The intracellular acidification was induced by addition of 975 μl of an NH4Cl-free buffer (see below) to 25 μl aliquots of the cells incubated in NH4Cl buffer. The subsequent rate of pH recovery was recorded for 3 minutes. To calculate the inhibitory power of the substances tested, the cells were initially investigated in buffers in which complete or absolutely no pH recovery took place. […] Test solutions of the substances of interest were made up in the Na^+-containing buffer. Recovery of the intracellular pH at the tested concentration of a substance was expressed as a percentage of the maximum recovery.

What is called remaining activity is the activity still measured, relative to the control.

For the compound `CC(=O)c1c(C)nc2ccccc2c1NCc1ccc(CCC2(O)CCC3(C)C(CC(O)C4C3CC(O)C3(C)C(C(C)CCC(=O)O)CCC43)C2)cc1` (stereo not drawn) [Example 2, 2-Methyl-3-acetyl-4-{4-[1-(3α,7α, 12α-trihydroxy-10β,13β-dimethyl-17β-(3-carboxy-1-methylpropyl)hexadecahydrocyclopenta[a]phenanthren-3-yl)eth-2-yl]benzylamino}quinoline], the “remaining activity of hNHE3” value turned out to be 33%.

In the case of `CC(=O)c1c(C)nc2ccccc2c1NCc1ccc(C#CC2(O)CCC3(C)C(CC(O)C4C3CC(O)C3(C)C4CC[C@@H]3C(C)CCC(=O)O)C2)c(Cl)c1` (stereo partly drawn) [Example 25, 2-Methyl-3-acetyl-4-{4-[1-(3α,7α,12α-trihydroxy-10β,13β-dimethyl-17β-(3-carboxy-1-methylpropyl)hexadecahydrocyclopenta[a]phenanthren-3-yl)ethyn-2-yl]-3-chlorobenzylamino}quinoline], the remaining activity at 30 µM came to 18%.

For the compound `CC(=O)c1c(NCc2ccc(CCC3(O)CC[C@@]4(C)C(CC(O)C5C4CC(O)[C@@]4(C)C5CC[C@@H]4[C@H](C)CCC(=O)O)C3)cc2)cc(C)nc1C` (stereo partly drawn) [Example 31, 2,6-Dimethyl-3-acetyl-4-{4-[1-(3α,7α,12α-trihydroxy-10β,13β-dimethyl-17β-(3-carboxy-1-methylpropyl)hexadecahydrocyclopenta[a]phenanthren-3-yl)eth-2-yl]benzylamino}pyridine], the remaining activity at 30 µM turned out to be 69%.

Turning to `CC(=O)c1c(C)nc2ccccc2c1NCc1ccc(CCC2(O)CCC3(C)C(CC(O)C4C3CC(O)C3(C)C4CC[C@@H]3C(C)CCC(=O)O)C2)c(F)c1` (stereo partly drawn) [Example 24, 2-Methyl-3-acetyl-4-{4-[1-(3α,7α,12α-trihydroxy-10β,13β-dimehtyl-17β-(3-carboxy-1-methylpropyl)hexadecahydrocyclopenta[a]phenanthren-3-yl)eth-2-yl]-3-fluorobenzylamino}quinoline], the remaining activity at 30 µM was determined as 29%.

Consider `CC(=O)c1c(C)nc2ccccc2c1NCc1cccc(CC[C@@]2(O)CC[C@@]3(C)C(C[C@@H](O)C4C3C[C@H](O)[C@@]3(C)C4CC[C@@H]3[C@H](C)CCC(=O)NCCS(=O)(=O)O)C2)c1` (stereo partly drawn) [Example 16, 2-Methyl-3-acetyl-4-{3-[1-(3α,7α,12α-trihydroxy-10β,13β-dimethyl-17β(3-(2-sulfoethylcarbamoyl)-1-methylpropyl)hexadecahydrocyclopenta[a]phenanthren-3-yl)eth-2-yl]benzylamino}quinoline], for which the remaining activity at 30 µM came out at 27%.

For the compound `CC(=O)c1c(C)nc2ccccc2c1NCc1ccccc1C#CC1(O)CC[C@@]2(C)C(CC(O)C3C2CC(O)[C@@]2(C)C3CC[C@@H]2[C@H](C)CCC(=O)O)C1` (stereo partly drawn) [Example 17, 2-Methyl-3-acetyl-4-{2-[1-(3α,7α,12α-trihydroxy-10β,13β-dimethyl-17β-(3-carboxy-1-methylpropyl)hexadecahydrocyclopenta[a]phenanthren-3-yl)ethyn-2-yl]benzylamino}quinoline], the remaining activity at 30 µM was 36%.

Regarding `CC(=O)c1c(C)nc2ccccc2c1NCc1ccc(C#CC2(O)CCC3(C)C(CC(O)C4C3CC(O)C3(C)C4CC[C@@H]3C(C)CCC(=O)O)C2)c(F)c1` (stereo partly drawn) [Example 23, 2-Methyl-3-acetyl-4-{4-[1-(3α,7α,12α-trihydroxy-10β,13β-dimethyl-17β-(3-carboxy-1-methylpropyl)hexadecahydrocyclopenta[a]phenanthren-3-yl)ethyn-2-yl]-3-fluorobenzylamino}quinoline], the remaining activity at 30 µM amounted to 16%.

`CC(=O)c1c(C)nc2ccccc2c1NCc1cccc(CC[C@@]2(O)CC[C@@]3(C)C(C[C@@H](O)C4C3C[C@H](O)[C@@]3(C)C4CC[C@@H]3[C@H](C)CCC(=O)NCC(=O)O)C2)c1` (stereo partly drawn) [Example 15, 2-Methyl-3-acetyl-4-{3-[1-(3α,7α,12α-trihydroxy-10β,13β-dimethyl-17β-(3-carboxymethylcarbamoyl-1-methylpropyl)hexadecahydrocyclopenta[a]phenanthren-3-yl)eth-2-yl]benzylamino}quinoline]: the remaining activity at 30 µM was determined as 65%.

For `CC(=O)c1c(C)nc2ccccc2c1NCc1ccc(C#CC2(O)CCC3(C)C(CC(O)C4C3CC(O)C3(C)C4CC[C@@H]3C(C)CCC(=O)O)C2)cc1` (stereo partly drawn) [Example 1, 2-Methyl-3-acetyl-4-{4-[1-(3α,7α, 12α-trihydroxy-10β, 13β-dimethyl-17β-(carboxy-1-methylpropyl)hexadecahydrocyclopenta[a]phenanthren-3-yl)ethyn-2-yl]-benzylamino}quinoline], the remaining activity at 30 µM worked out at 26%.

In the case of `CC(=O)c1c(C)nc2ccccc2c1NCc1ccc(CCC2(O)CCC3(C)C(CC(O)C4C3CC(O)C3(C)C4CC[C@@H]3C(C)CCC(=O)O)C2)cc1Cl` (stereo partly drawn) [Example 29, 2-Methyl-3-acetyl-4-{4-[1-(3α,7α,12α-trihydroxy-10β,13β-dimethyl-17β(3-carboxy-1-methylpropyl)hexadecahydrocyclopenta[a]phenanthren-3-yl)eth-2-yl]-2-chlorobenzylamino}quinoline], the remaining activity at 30 µM was 61%.

For `CC(=O)c1c(C)nc2ccccc2c1NCc1ccccc1CCC1(O)CCC2(C)C(CC(O)C3C2CC(O)C2(C)C(C(C)CCC(=O)O)CCC32)C1` (stereo not drawn) [Example 18, 2-Methyl-3-acetyl-4-{2-[1-(3α,7α,12α-trihydroxy-10β,13β-dimethyl-17β(3-carboxy-1-methylpropyl)hexadecahydrocyclopenta[a]phenanthren-3-yl)eth-2-yl]benzylamino}quinoline], the “remaining activity of hNHE3” value is listed as 36%.

Consider `COC(=O)c1c(C)nc2ccccc2c1NCc1ccc(C#CC2(O)CCC3(C)C(CC(O)C4C3CC(O)C3(C)C4CC[C@@H]3C(C)CCC(=O)O)C2)cc1` (stereo partly drawn) [Example 6, Methyl 2-methyl-4-{4-[1-(3α,7α,12α-trihydroxy-10β, 13β-dimethyl-17β-(3carboxy-1-methylpropyl)hexadecahydrocyclopenta[a]phenanthren-3-yl)ethyn-2-yl]benzylamino}quinoline-3-carboxylate], for which the remaining activity at 30 µM is 39%.

Turning to `CC(=O)c1c(C)nc2ccccc2c1NCc1ccc(C#CC2(O)CCC3(C)C(CC(O)C4C3CC(O)C3(C)C4CC[C@@H]3C(C)CCC(=O)O)C2)cc1F` (some centres unmarked) [Example 26], the remaining activity at 30 µM came out at 52%.

With `CC(=O)c1c(C)nc2ccccc2c1NCc1ccc(C#CC2(O)CCC3(C)C(CC(O)C4C3CC(O)C3(C)C4CC[C@@H]3C(C)CCC(=O)O)C2)cc1Cl` (stereo partly drawn) [Example 28, 2-Methyl-3-acetyl-4-{4-[1-(3α,7α,12α-trihydroxy-10β,13β-dimethyl-17β-(3-carboxy-1-methylpropyl)hexadecahydrocyclopenta[a]phenanthren-3-yl)ethyn-2-yl]-2-chlorobenzylamino}quinoline], the remaining activity at 30 µM worked out at 69%.

Consider `COC(=O)CC[C@@H](C)[C@H]1CCC2C3C(C[C@H](O)[C@@]21C)[C@@]1(C)CC[C@H](OCCNC(=O)c2c(C)nc4ccccc4c2NCc2ccccc2)CC1C[C@H]3O` (stereo partly drawn) [Example 3, 2-Methyl-4-aminobenzyl-N-{2-[7α, 12α-dihydroxy-10β,13β-dimethyl-17β-(3-methoxycarbonyl-1-methylpropyl)hexadecahydrocyclopenta[a]phen-anthren-3β-yloxy]ethyl}quinoline-3-carboxamide], for which the remaining activity at 30 µM was found to be 22%.

For `CC(=O)c1c(C)nc2ccccc2c1NCc1ccc(CCC2(O)CCC3(C)C(CC(O)C4C3CC(O)C3(C)C4CC[C@@H]3C(C)CCC(=O)O)C2)cc1F` (stereo partly drawn) [Example 27, 2-Methyl-3-acetyl-4-{4-[1-(3α,7α,12α-trihydroxy-10β,13β-dimethyl-17β-(3-carboxy-1-methylpropyl)hexadecahydrocyclopenta[a]phenanthren-3-yl)eth-2-yl]-2-fluorobenzylamino}quinoline], the remaining activity at 30 µM turned out to be 54%.

As to `CC(=O)c1c(NCc2ccc(C#CC3(O)CC[C@@]4(C)C(CC(O)C5C4CC(O)[C@@]4(C)C5CC[C@@H]4[C@H](C)CCC(=O)O)C3)cc2)cc(C)nc1C` (stereo partly drawn) [Example 30, 2,6-Dimethyl-3-acetyl-4-{4-[1-(3α,7α,12α-trihydroxy-10β,13β-dimethyl-17β-(3-carboxy-1-methylpropyl)hexadecahydrocyclopenta[a]phenanthren-3-yl)ethyn-2-yl]benzylamino}pyridine], the remaining activity at 30 µM was 48%.
